Assay results: patent publication US20090209537A1, “AURORA INHIBITORS” (Kyowa Hakko Kirin Co., Ltd., priority 2006, published 2009)

How the values were obtained:
[1] = system: human pancreatic cancer cell line (MIA-PaCa-2); assay: Cytostatic activity against human pancreatic cancer cell line (WST-1); assay type: cell-based; conditions: at a concentration of 10 μmol/L, 72 hours, read-out: growth inhibitory activity
Experimental: The cytostatic rate of Compound (I) against a human pancreatic cancer cell line (MIA-PaCa-2) was measured according to the following procedure.
MIA-PaCa-2 cells were cultured in a minimum essential medium (MEM) (GIBCO) containing a 10% fetal calf serum (FCS).
Each well of a TC Microwell 96F plate (Nalge Nunc) was inoculated with 50 μL of MIA-PaCa-2 cells at a density of 1000 cells/well, and the cells were incubated at 37° C. for 24 hours in a 5% carbon dioxide gas incubator. To each well, 50 μL of a solution containing a test compound prepared by stepwise dilution with the incubation medium of the respective cells was added and the resulting mixture was again incubated at 37° C. for 72 hours in a 5% carbon dioxide gas incubator. To each well, 10 μL of a WST-1 reagent (4-[3-(4-iodophenyl)-2-(4-nitrophenyl)-2H-5-tetrazolio]-1,3-benzene disulfonate sodium salt) (Roche Diagnostics K. K.) was added, followed by incubation at 37° C. for 2 hours and analysis with a microplate spectrometer, SpectraMax 340PC (Molecular Devices) to determine the absorbance at 450 nm (reference wavelength: 690 nm). The cytostatic rate was determined from the equation below by assuming the absorbance of the well containing cells similarly cultured by adding a solvent of the test compound solution to be 100%. Furthermore, the observed absorbance of a blank to which WST-1 was added immediately after addition of the solvent was used.

Aurora B protein = target: T1, Aurora B protein (Homo sapiens, UniProt Q96GD4); assay: Aurora B inhibitory activity (IMAP); assay type: biochemical; conditions: at a concentration of 1 μmol/L; 10 μmol/L ATP
T1 construct: purchased Carna Biosciences
Experimental: The following procedure was employed to measure the Aurora B inhibitory activity.
(§1) A 20 μL sample containing Aurora B protein (Carna Biosciences) at a final concentration of 0.3 mg/mL, 20 mmol/L HEPES (pH 7.4), 0.01% Tween-20, 2 mmol/L DTT, 100 nmol/L Histone H3, 1 mmol/L magnesium acetate, 10 μmol/L ATP, 1% DMSO, and 1 μmol/L test compound was prepared and enzyme reaction was conducted at room temperature for 60 minutes. Phosphorylation reaction was detected by using IMAP Screening Express kit (Molecular Devices Corp., R8073).
(§2) While assuming the observed value of a control to which ATP was added to be 100% and the observed value of a control to which no ATP was added to be 0%, the relative activity (%) of the radio activity of a sample containing a test compound was calculated, and the difference between 100 and the obtained percentage value was assumed to be the Aurora B inhibitory rate (%) of that test compound.

Aurora A protein = target: T2, Aurora A protein (Homo sapiens, UniProt O14965); assay: Aurora A inhibitory activity (IMAP); assay type: biochemical; conditions: at a concentration of 1 μmol/L; 10 μmol/L ATP
T2 construct: purchased Carna Biosciences
T2 sequence (O14965 1-403): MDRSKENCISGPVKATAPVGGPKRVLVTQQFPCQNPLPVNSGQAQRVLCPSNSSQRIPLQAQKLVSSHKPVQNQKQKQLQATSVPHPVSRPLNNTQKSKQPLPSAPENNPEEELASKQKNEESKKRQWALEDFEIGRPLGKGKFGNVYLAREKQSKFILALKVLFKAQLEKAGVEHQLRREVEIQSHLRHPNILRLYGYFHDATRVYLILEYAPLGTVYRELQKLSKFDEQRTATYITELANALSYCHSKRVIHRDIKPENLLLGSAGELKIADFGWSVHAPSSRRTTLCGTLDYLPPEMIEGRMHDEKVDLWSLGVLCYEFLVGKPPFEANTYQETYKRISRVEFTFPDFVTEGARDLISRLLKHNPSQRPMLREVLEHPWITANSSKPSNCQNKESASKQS
Experimental: The following procedure was employed to measure the Aurora A inhibitory activity.
as §1, with “Aurora A” for “Aurora B”, “of 0.35” for “of 0.3”, “nmol/L PKAtide,” for “nmol/L Histone H3,”, “μmol/L adenosine-5′-triphosphate (ATP),” for “μmol/L ATP,”, “1% dimethylsulfoxide (DMSO),” for “1% DMSO,”
as §2, with “A” for “B”

T1 sequence (Q96GD4 whole entry): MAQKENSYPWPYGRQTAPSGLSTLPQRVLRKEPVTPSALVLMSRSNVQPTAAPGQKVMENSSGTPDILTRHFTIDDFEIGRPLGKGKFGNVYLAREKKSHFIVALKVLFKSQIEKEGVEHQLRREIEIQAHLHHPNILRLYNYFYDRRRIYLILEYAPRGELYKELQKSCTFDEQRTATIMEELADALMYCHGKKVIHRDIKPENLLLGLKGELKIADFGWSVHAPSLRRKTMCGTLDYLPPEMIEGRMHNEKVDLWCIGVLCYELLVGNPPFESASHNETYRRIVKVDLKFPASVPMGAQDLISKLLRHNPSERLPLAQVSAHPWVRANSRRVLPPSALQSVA
T1 sequence (Q9NQS7 803-918 partner limits assumed): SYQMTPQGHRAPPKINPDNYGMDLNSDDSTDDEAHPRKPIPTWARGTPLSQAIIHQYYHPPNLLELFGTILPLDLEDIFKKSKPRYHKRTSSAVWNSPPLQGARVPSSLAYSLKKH

With Nc1cc(/C=C/c2n[nH]c3ccccc23)ccc1OCCN1CCOCC1 [Compound 4] the inhibition at 10 µM [1] was ≥ 50%, the inhibition at 1 µM (Aurora B protein) was ≥ 90% and the inhibition at 1 µM (Aurora A protein) was ≥ 90%.

COCC(=O)N1CCN(C(=O)c2ccc(/C=C/c3n[nH]c4ccccc34)cc2)CC1 [Compound 7] was tested, and the inhibition at 10 µM [1] was ≥ 50%, the inhibition at 1 µM (Aurora B protein) was ≥ 90% and the inhibition at 1 µM (Aurora A protein) was ≥ 90%.

CC(=O)N1CCN(C(=O)c2ccc(/C=C/c3n[nH]c4ccccc34)cc2)CC1 [Compound 6] was tested, and the inhibition at 10 µM [1] was ≥ 50%, the inhibition at 1 µM (Aurora B protein) was ≥ 90% and the inhibition at 1 µM (Aurora A protein) was ≥ 90%.
